Laboratory results reported in PMC11382572, “Structural and kinetic insights into the stereospecific oxidation of R-2,3-dihydroxypropanesulfonate by DHPS-3-dehydrogenase from Cupriavidus pinatubonensis” (Chemical Science, 2024).
pIC50: −log10 of the molar value.

Target: T1, DHPS-3-dehydrogenase (CpHpsN) (Cupriavidus pinatubonensis, UniProt Q46N53)
T1 construct: gene hpsN
Experiment: X-ray crystal structure, […] Å, co-crystallization; enzyme inhibition assay
Format: biochemical

T1 sequence (Q46N53 whole entry): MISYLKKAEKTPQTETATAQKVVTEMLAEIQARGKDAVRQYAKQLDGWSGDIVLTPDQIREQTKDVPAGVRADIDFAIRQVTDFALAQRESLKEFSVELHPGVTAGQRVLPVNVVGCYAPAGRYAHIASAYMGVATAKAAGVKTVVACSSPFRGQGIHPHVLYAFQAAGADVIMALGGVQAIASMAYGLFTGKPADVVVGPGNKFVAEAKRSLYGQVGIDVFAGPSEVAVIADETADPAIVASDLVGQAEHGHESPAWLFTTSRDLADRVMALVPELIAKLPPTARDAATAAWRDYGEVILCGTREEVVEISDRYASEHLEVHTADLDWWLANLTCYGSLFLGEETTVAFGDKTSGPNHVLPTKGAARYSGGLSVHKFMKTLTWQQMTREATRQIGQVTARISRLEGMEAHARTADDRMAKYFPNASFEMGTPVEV

pIC50: 2.62
SMILES: N[C@@H](CS(=O)(=O)O)C(=O)O [L-cysteate]
